Laboratory results taken from US12121505B2, “Fap-activated therapeutic agents, and uses related thereto” (BACH BIOSCIENCES, LLC, priority 2014, dated 2024).
pEC50: −log10 of the molar value. Like-named read-outs stand apart in the source and are kept apart here.

What was measured:
PREP = molecular target: T1, PREP (Homo sapiens, UniProt P48147); assay: Specificity of activation: 24 h digestion with PREP; type: biochemical; details: 100 μM prodrug, 37° C.
T1 sequence (P48147 1-710): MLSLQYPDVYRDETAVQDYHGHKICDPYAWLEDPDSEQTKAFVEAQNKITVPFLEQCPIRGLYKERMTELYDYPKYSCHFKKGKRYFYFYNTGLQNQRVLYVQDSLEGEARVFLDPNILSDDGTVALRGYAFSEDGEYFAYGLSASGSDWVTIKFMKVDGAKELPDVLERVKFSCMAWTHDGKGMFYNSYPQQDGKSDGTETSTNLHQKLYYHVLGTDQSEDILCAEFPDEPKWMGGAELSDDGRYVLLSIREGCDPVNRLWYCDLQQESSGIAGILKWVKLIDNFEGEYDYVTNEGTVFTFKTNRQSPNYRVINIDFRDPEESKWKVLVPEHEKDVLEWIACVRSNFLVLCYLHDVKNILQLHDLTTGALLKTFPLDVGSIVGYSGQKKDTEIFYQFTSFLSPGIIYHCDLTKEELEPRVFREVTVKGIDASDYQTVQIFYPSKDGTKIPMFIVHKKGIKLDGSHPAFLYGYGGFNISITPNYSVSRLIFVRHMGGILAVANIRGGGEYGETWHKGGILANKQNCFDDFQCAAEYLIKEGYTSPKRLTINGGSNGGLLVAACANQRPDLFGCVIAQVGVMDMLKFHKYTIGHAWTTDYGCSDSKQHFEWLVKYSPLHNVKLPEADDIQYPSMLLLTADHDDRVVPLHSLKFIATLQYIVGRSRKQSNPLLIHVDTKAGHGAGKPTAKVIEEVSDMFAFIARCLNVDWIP
Protocol: (§1) Total doxorubicin was measured for each assay.

[1] = molecular target: dipeptidyl peptidase IV (DPP IV) (Homo sapiens, UniProt P27487); assay: Specificity of activation: 24 h digestion with DPP IV; type: biochemical; details: 100 μM prodrug, 37° C.
Protocol: as §1

MCF-7 = assay: CellTiter-Blue cell viability assay, MCF-7; type: cell-based; details: 5061DOX assay 2, MCF-7, 72 hour
HEK-Mock cells = assay: CellTiter-Blue cell viability assay with HEK-Mock cells; type: cell-based; details: Homo sapiens
HEK-mFAP cells = assay: CellTiter-Blue cell viability assay with HEK-mFAP cells; type: cell-based, Human; details: for activation by FAP expressed by HEK-mFAP cells / effect of addition of the FAP inhibitor 5057 on activation: FIG. 15A, 15B
SK-OV-3 = assay: CellTiter-Blue cell viability assay, SK-OV-3; type: cell-based; details: 5061DOX assay 2, SK-OV-3, 72 hour
OVCAR-3 = assay: CellTiter-Blue cell viability assay, OVCAR-3; type: cell-based; details: 5061DOX assay 2, OVCAR-3, 72 hour
[2] = Homo sapiens, read-out: EC50 (prodrug + 100 uM 5057)
[3] = Homo sapiens, read-out: EC50 (prodrug alone)
[4] = Homo sapiens, 72 h, MK-2206 / Akt inhibitor prodrugs, HEK-mFAP cells, 72 hour incubation, read-out: EC50 (prodrug alone)
[5] = read-out: EC50 (doxorubicin alone)

Chain of dipeptidyl peptidase IV (DPP IV) (P27487 whole entry, species assumed): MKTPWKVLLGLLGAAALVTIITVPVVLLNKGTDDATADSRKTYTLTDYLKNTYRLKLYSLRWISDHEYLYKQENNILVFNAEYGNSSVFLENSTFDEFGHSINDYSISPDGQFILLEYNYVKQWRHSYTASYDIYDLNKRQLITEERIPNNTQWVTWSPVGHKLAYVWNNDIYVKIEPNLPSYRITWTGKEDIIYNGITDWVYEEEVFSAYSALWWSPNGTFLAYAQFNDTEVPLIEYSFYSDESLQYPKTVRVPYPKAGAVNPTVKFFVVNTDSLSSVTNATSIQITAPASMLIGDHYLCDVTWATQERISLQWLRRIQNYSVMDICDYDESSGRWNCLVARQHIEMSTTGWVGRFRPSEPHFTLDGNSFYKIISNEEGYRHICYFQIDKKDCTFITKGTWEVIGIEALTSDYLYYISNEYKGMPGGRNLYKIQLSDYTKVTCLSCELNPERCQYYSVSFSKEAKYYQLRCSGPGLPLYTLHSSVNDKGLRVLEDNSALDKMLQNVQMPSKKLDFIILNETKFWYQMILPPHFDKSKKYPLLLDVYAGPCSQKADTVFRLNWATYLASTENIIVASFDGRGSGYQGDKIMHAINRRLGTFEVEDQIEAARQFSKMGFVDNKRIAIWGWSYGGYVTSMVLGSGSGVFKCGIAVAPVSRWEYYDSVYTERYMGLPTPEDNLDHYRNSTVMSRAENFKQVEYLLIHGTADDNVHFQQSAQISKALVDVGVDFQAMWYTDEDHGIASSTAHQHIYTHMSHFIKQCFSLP

`COc1cccc2c1C(=O)c1c(O)c3c(c(O)c1C2=O)C[C@@](O)(C(=O)CO)C[C@@H]3OC1CC(NC(=O)[C@@H]2CCCN2C(=O)[C@@H](C)NC(=O)[C@H](CO)NC(=O)CCC(=O)O)C(O)C(C)O1` (stereo partly drawn) [Compound 3996DOX] was tested, and the “doxorubicin released by PREP” value (PREP) was “essentially none by PREP or DPP IV” and the “doxorubicin released by DPP IV” value [1] was “essentially none by PREP or DPP IV”.
For `COc1cccc2c1C(=O)c1c(O)c3c(c(O)c1C2=O)C[C@@](O)(C(=O)CO)C[C@@H]3OC1CC(NC(=O)[C@@H]2CCCN2C(=O)[C@@H](C)NC(=O)c2ccnc3cccc(Br)c23)C(O)C(C)O1` (stereo partly drawn) [Compound 5061DOX], the pEC50 (MCF-7; Homo sapiens, MCF7, read-out: EC50 (prodrug + 25 nM FAP)) was < 4.00, the pEC50 (MCF-7; Homo sapiens, MCF7, read-out: EC50 (prodrug + 100 uM 5057)) was < 4.00 and the pEC50 (MCF-7; Homo sapiens, MCF7, read-out: EC50 (prodrug alone)) was < 4.00. For the same compound, the pEC50 (HEK-Mock cells; 72 h, 5061DOX assay 1, HEK-Mock, 72 hour, read-out: EC50 (prodrug + 25 nM FAP)) was 6.55, the pEC50 (HEK-Mock cells; 72 h, 5061DOX assay 1, HEK-Mock, 72 hour, read-out: EC50 (prodrug + 50 nM PREP)) was < 4.00 and the pEC50 (HEK-Mock cells; 72 h, 5061DOX assay 1, HEK-Mock, 72 hour, read-out: EC50 (prodrug + 100 uM 5057)) was < 4.00. The pEC50 (HEK-Mock cells; 72 h, 5061DOX assay 1, HEK-Mock, 72 hour, read-out: EC50 (prodrug alone)) was < 4.00, the pEC50 (HEK-Mock cells; 72 h, 5061DOX assay 2, HEK-Mock, 72 hour, read-out: EC50 (prodrug + 25 nM FAP)) was 6.60 and the pEC50 (HEK-Mock cells; 72 h, 5061DOX assay 2, HEK-Mock, 72 hour, read-out: EC50 (prodrug alone)) was < 4.00. The pEC50 (HEK-mFAP cells; 5061DOX assay 1, HEK-mFAP, 72 hour, read-out: EC50 (prodrug alone)) was < 4.00, the pEC50 (HEK-mFAP cells; 5061DOX assay 2, HEK-mFAP, 72 hour, read-out: EC50 (prodrug + 100 uM 5057)) was < 4.00 and the pEC50 (HEK-mFAP cells; Homo sapiens, 5061DOX assay 1, HEK-mFAP, 72 hour, read-out: EC50 (prodrug + 100 uM 5057)) was < 4.00. For the same compound, the pEC50 (HEK-mFAP cells; Homo sapiens, 5061DOX assay 2, HEK-mFAP, 72 hour, read-out: EC50 (prodrug alone)) was < 4.00, the pEC50 (SK-OV-3; Homo sapiens, read-out: EC50 (prodrug + 25 nM FAP)) was 6.05 and the pEC50 (SK-OV-3; [2]) was < 4.00. For the same compound, the pEC50 (SK-OV-3; [3]) was < 4.00, the pEC50 (OVCAR-3; [2]) was < 4.00 and the pEC50 (OVCAR-3; Homo sapiens, read-out: EC50 (prodrug = 25 nM FAP)) was 5.82. The pEC50 (OVCAR-3; [3]) was < 4.00.
For `COc1cccc2c1C(=O)c1c(O)c3c(c(O)c1C2=O)C[C@@](O)(C(=O)CO)C[C@@H]3OC1CC(NC(=O)[C@@H]2CC(F)(F)CN2C(=O)[C@@H](C)NC(=O)c2ccnc3ccccc23)C(O)C(C)O1` (stereo partly drawn) [Compound 5107DOX], the pEC50 (HEK-mFAP cells; Homo sapiens, 5107DOX assay, HEK-mFAP, 72 hour, read-out: EC50 (prodrug + 100 uM 5057-2)) was < 4.00 and the pEC50 (HEK-mFAP cells; Homo sapiens, 5107DOX assay, HEK-mFAP, 72 hour, read-out: EC50 (prodrug alone)) was 6.03.
In the case of `C[C@@H](NC(=O)c1ccncc1)C(=O)N1CCC[C@H]1C(=O)Nc1ccc(COC(=O)NC2(c3ccc(-c4nc5ccn6c(=O)[nH]nc6c5cc4-c4ccccc4)cc3)CCC2)cc1` [Compound 5157], the pEC50 (HEK-Mock cells; 5157 assay, HEK-Mock, read-out: EC50 (prodrug + 100 uM 3099-15)) was < 5.60, the pEC50 (HEK-Mock cells; 5157 assay, HEK-Mock, read-out: EC50 (prodrug alone)) was < 5.60 and the pEC50 (HEK-mFAP cells; Homo sapiens, 5157 assay, HEK-mFAP, read-out: EC50 (prodrug + 100 uM 3099-15)) was < 5.60. For the same compound, the pEC50 (HEK-mFAP cells; Homo sapiens, 5157 assay, HEK-mFAP, read-out: EC50 (prodrug alone)) was 5.54.
With `O=C(NC1(c2ccc(-c3nc4ccn5c(=O)[nH]nc5c4cc3-c3ccccc3)cc2)CCC1)OCc1ccc(NC(=O)[C@@H]2CC(F)(F)CN2C(=O)CNC(=O)c2ccnc3ccccc23)cc1` [Compound 5173] the “activation by FAP expressed by HEK-mFAP cells” value (HEK-mFAP cells) was “appears to be activated by the FAP expressed by the HEK-mFAP cells”, the “effect of addition of the FAP inhibitor 5057 on activation” value (HEK-mFAP cells) was “blocks this activation” and the pEC50 (HEK-mFAP cells; [4]) was < 5.60.
`C[C@@H](NC(=O)c1ccnc2ccccc12)C(=O)N1CC(F)(F)C[C@H]1C(=O)Nc1ccc(COC(=O)NC2(c3ccc(-c4nc5ccn6c(=O)[nH]nc6c5cc4-c4ccccc4)cc3)CCC2)cc1` [Compound 5174] was tested, and the “activation by FAP expressed by HEK-mFAP cells” value (HEK-mFAP cells) was “appears to be activated by the FAP expressed by the HEK-mFAP cells”, the “effect of addition of the FAP inhibitor 5057 on activation” value (HEK-mFAP cells) was “blocks this activation” and the pEC50 (HEK-mFAP cells; [4]) was 5.34.
Work on `Cn1ncc(Cl)c1-c1cc(C(=O)N[C@H](CNC(=O)[C@@H]2CC(F)(F)CN2C(=O)CNC(=O)c2ccnc3ccccc23)Cc2cccc(F)c2)sc1Cl` [Compound 5184] yielded a pEC50 (HEK-mFAP cells; Homo sapiens, 72 h, Akt inhibitor prodrugs, HEK-mFAP cells, 72 hrs, read-out: EC50 (prodrug alone)) of 6.03.
For `CCn1c(-c2nonc2N)nc2c(C#CC(C)(C)O)ncc(OC[C@H]3CCCN(C(=O)[C@@H]4CC(F)(F)CN4C(=O)CNC(=O)c4ccnc5ccccc45)C3)c21` [Compound 5188], the pEC50 (HEK-mFAP cells; [4]) was < 4.60.
Work on `O=C(NC1(C(=O)N[C@@H](CCO)c2ccc(Cl)cc2)CCN(c2ncnc3[nH]ccc23)CC1)OCc1ccc(NC(=O)[C@@H]2CC(F)(F)CN2C(=O)CNC(=O)c2ccnc3ccccc23)cc1` [Compound 5189] yielded a pEC50 (HEK-mFAP cells; Homo sapiens, 72 h, Akt inhibitor prodrugs, HEK-mFAP cells, 72 hour, read-out: EC50 (prodrug + 100 uM 5057-2)) of 5.24 and a pEC50 (HEK-mFAP cells; [4]) of 5.52.
For `NNc1ccc(C(=O)NCC(=O)N2CC(F)(F)C[C@H]2C(=O)Nc2ccc(COC(=O)NC3(c4ccc(-c5nc6ccn7c(=O)[nH]nc7c6cc5-c5ccccc5)cc4)CCC3)cc2)cn1` [Compound 5192], the pEC50 (HEK-mFAP cells; [4]) was < 5.52.
Work on `NCC(=O)NNc1ccc(C(=O)NCC(=O)N2CC(F)(F)C[C@H]2C(=O)Nc2ccc(COC(=O)NC3(c4ccc(-c5nc6ccn7c(=O)[nH]nc7c6cc5-c5ccccc5)cc4)CCC3)cc2)cn1` [Compound 5193] yielded a pEC50 (HEK-mFAP cells; [4]) of 5.59.
In the case of `Cn1ncc(Cl)c1-c1cc(C(=O)N[C@H](CN)Cc2cccc(F)c2)sc1Cl` [GSK2 110183, reference compound], the pEC50 (HEK-mFAP cells; HEK-mFAP cells, 72 hrs, read-out: EC50 (GSK2 110183)) was 6.31.
In the case of `CCn1c(-c2nonc2N)nc2c(C#CC(C)(C)O)ncc(OC[C@H]3CCCNC3)c21` [GSK690693, reference compound], the pEC50 (HEK-mFAP cells; Homo sapiens, 72 h, HEK-mFAP cells, 72 hour, read-out: EC50 (GSK690693)) was 4.82.
`NC1(c2ccc(-c3nc4ccn5c(=O)[nH]nc5c4cc3-c3ccccc3)cc2)CCC1` [MK-2206, reference compound] gave a pEC50 (HEK-Mock cells; 5157 assay, HEK-Mock, read-out: EC50 (MK-2206 alone)) of 5.17, a pEC50 (HEK-mFAP cells; Homo sapiens, 5157 assay, HEK-mFAP, read-out: EC50 (MK-2206 alone)) of 5.28 and a pEC50 (HEK-mFAP cells; Homo sapiens, 72 h, HEK-mFAP cells, 72 hrs, read-out: EC50 (MK-2206)) of 5.04.
For `COc1cccc2c1C(=O)c1c(O)c3c(c(O)c1C2=O)C[C@@](O)(C(=O)CO)C[C@@H]3O[C@H]1C[C@H](N)[C@H](O)[C@H](C)O1` [doxorubicin, reference compound], the pEC50 (MCF-7; [5]) was 4.27, the pEC50 (SK-OV-3; [5]) was 6.36 and the pEC50 (OVCAR-3; [5]) was 5.77.
Work on AZD5363 [reference compound] yielded a pEC50 (HEK-mFAP cells; HEK-mFAP cells, 72 hour, read-out: EC50 (AZD5363)) of 5.60.
